In ChEMBL document CHEMBL1201862, “PubChem BioAssay data set” (2004):
The source made the active and inactive calls.

What was measured:
[1] = biological target: T1, Microphthalmia-associated transcription factor (Homo sapiens, UniProt O75030); assay: reducers of TRPM1 reporter luminescence, concentration series – cell-based, SK-MEL-5, cherry-picked, set 3, MITF inhibitor project, dose response (AID 493073); assay type: functional;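 further: SK-MEL-5 melanoma cells with luciferase driven by the MITF target TRPM1 promoter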
T1 sequence (O75030 whole entry): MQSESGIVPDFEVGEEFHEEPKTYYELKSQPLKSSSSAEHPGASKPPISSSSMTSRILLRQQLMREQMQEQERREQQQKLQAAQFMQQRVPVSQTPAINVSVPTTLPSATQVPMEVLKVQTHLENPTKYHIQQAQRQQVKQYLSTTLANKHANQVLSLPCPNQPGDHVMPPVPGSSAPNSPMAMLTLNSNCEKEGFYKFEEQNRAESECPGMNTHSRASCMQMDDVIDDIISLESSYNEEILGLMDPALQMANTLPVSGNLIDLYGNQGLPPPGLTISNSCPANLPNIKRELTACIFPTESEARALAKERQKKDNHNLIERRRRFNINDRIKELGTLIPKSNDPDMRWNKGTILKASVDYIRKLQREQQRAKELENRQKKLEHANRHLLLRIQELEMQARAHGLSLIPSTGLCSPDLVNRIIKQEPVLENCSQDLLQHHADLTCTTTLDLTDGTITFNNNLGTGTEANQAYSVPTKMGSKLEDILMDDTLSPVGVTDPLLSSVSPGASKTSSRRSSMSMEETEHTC

[2] = system: Vero; assay: cells; assay type: functional, cell-based; settings: Chlorocebus sabaeus
[3] = system: Vero; assay: cells; assay type: functional; settings: Chlorocebus sabaeus
[4] = Luminescence Cell-Based Dose Retest to Confirm Inhibitors of Cancer Stem Cells. [Related pubchem assays (depositor defined):AID2717, AID2721]; assay type: functional; settings: Homo sapiens
[5] = biological target: Heat shock protein HSP 90-alpha (Homo sapiens, UniProt P07900); assay type: functional, organism-based
[6] = biological target: T2, Insulin-degrading enzyme (Homo sapiens, UniProt P14735); assay: recombinant IDE activation, cell-free – biochemical, fluorescence polarization, counter-screen for IDE activator project, dose response (AID 588681)
T2 sequence (P14735 whole entry): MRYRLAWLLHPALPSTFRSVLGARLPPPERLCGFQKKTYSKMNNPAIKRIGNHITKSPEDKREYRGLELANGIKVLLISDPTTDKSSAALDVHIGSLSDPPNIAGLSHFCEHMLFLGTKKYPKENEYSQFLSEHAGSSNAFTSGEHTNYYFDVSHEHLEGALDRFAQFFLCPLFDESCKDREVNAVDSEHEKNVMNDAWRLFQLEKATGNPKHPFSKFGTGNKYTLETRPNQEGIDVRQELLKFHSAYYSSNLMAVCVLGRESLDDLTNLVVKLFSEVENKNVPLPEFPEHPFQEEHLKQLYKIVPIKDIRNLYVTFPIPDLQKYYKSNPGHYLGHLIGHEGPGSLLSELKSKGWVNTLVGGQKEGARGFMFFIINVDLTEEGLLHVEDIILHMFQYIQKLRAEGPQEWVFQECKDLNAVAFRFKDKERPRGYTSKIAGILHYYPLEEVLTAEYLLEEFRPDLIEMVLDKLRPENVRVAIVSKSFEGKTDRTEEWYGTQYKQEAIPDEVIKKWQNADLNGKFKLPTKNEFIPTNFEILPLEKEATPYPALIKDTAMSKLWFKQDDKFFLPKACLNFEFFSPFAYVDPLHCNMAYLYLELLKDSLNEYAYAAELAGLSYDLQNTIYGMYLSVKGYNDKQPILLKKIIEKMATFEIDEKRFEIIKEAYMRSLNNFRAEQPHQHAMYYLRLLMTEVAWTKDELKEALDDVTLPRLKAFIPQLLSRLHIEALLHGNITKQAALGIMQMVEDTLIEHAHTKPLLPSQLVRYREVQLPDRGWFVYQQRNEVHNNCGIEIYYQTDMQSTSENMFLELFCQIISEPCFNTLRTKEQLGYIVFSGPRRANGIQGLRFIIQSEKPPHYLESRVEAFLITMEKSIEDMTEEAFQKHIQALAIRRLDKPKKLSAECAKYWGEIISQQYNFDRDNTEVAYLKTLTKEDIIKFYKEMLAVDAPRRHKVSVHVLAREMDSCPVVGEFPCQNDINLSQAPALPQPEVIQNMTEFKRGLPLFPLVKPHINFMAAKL

[7] = biological target: T2, Insulin-degrading enzyme; assay: cellular IDE activation of Abeta substrate cleavage – fluorescence polarization, HEK cells, dose response (AID 588439); assay type: functional, cell-based
[8] = system: HEK293; assay: membrane integrity loss in HEK cells – cell-based, fluorescence, cytotoxicity control for IDE activator project, dose response (AID 588440); assay type: functional; settings: Homo sapiens;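 further: cytotoxicity by LDH release measuring loss of membrane integrity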
[9] = system: HEK293; assay: optical interference in Abeta FP readout, dose response, artefact control for IDE activator project, biochemical, fluorescence polarization (AID 588442); assay type: functional, cell-based; settings: Homo sapiens
[10] = potency of ADAM10 substrate cleavage blockers – biochemical, QFRET, dose response (AID 743254);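 further: ADAM10 enzyme with the DM2 quenched FRET peptide as substrate; EDANS fluorescence gain as the protease cuts the substrate; inhibitor potency against ADAM10 proteolytic activity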
[11] = biological target: Disintegrin and metalloproteinase domain-containing protein 17 (Homo sapiens, UniProt P78536); assay: inhibition of ADAM17 substrate cleavage – biochemical, quenched FRET substrate, counter-screen for ADAM10 exosite inhibitor project, dose response (AID 743253)
[12] = biological target: T3, Ubiquitin-conjugating enzyme E2 N (Homo sapiens, UniProt P61088); assay type: functional;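 further: Dose-response confirmation in a TR-FRET assay detecting UBC13-driven polyubiquitin chain formation, inhibition measured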
T3 sequence (P61088 whole entry): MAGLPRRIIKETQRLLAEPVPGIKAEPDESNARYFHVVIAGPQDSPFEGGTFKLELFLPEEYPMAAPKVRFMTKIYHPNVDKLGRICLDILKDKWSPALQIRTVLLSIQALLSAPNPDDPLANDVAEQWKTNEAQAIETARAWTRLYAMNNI

[13] = system: INS1; assay: INS-1E survival protection against cytokine death – cell-based, luminescence, retest, dose response (AID 449756); assay type: functional; settings: Rattus norvegicus;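 further: cell death triggered by IL-1 beta plus TNF-alpha plus IFN-gamma mixture; protective hits raise ATP signal compared with cytokine alone wells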
[14] = system: Vero; assay: viability of Vero cells under compound – cytotoxicity control for flavivirus capping enzyme inhibitors (AID 588742); assay type: functional; settings: Chlorocebus sabaeus
[15] = NIH-3T3 fibroblast cytotoxicity, dose response, cytotoxicity control, cell-based, fluorescence, Alamar Blue, secondary assay (AID 2327); assay type: functional;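 further: NIH-3T3 mouse fibroblasts cultured with fluconazole at 8 µg/mL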
[16] = fluconazole-exposed Candida albicans growth modulators – fluorescence, retest, confirmation (AID 2467); assay type: functional, cell-based
[17] = biological target: T4, Serine/threonine-protein phosphatase (Candida dubliniensis (strain CD36 / CBS 7987 / NCPF 3949 / NRRLY-17841) (Yeast), UniProt B9W6M3); assay: blockers of CaCl2-induced CDRE-lacZ signaling – S. cerevisiae, luminescence, secondary, dose response (AID 2388); assay type: functional, cell-based;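 further: yeast reporter cells carrying a calcineurin-responsive lacZ construct stimulated with calcium chloride; luminescent beta-galactosidase reporter signal in whole cells rather than isolated phosphatase activity; potency for inhibition where a drop in reporter signal means calcineurin blockade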
T4 sequence (B9W6M3 whole entry): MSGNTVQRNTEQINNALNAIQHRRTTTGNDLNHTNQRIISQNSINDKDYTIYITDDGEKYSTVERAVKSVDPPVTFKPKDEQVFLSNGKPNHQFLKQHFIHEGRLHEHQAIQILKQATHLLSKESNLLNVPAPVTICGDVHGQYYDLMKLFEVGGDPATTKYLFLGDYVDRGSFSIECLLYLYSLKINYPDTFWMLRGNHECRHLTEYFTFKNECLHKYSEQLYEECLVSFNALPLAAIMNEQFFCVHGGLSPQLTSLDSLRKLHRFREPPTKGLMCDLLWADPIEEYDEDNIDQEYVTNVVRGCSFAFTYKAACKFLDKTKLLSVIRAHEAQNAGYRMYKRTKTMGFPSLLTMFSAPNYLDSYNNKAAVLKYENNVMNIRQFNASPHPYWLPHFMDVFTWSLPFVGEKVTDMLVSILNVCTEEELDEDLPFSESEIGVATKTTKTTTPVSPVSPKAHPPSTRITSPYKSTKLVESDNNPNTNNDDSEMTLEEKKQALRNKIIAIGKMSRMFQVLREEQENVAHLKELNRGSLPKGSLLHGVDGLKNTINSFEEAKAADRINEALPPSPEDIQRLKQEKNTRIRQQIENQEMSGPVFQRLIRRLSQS

[18] = biological target: ATP-dependent molecular chaperone HSP82 (Candida albicans (strain WO-1) (Yeast), UniProt C4YTQ8); assay: steroid-induced GRE reporter decrease in yeast – S. cerevisiae, luminescence, Hsp90 inhibitor project, dose response (AID 2400); assay type: functional, cell-based;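 further: beta-galactosidase luminescence from glucocorticoid response element reporter as proxy for Hsp90 function; inhibitor potency where signal loss means Hsp90 inhibition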
[19] = biological target: Tumor necrosis factor (Homo sapiens, UniProt P01375); assay: analog potency on TNFa NF-kB signaling – cell-based, revised, SAR follow-up (AID 2337); assay type: functional
[20] = biological target: T5, Nucleotide-binding oligomerization domain-containing protein 1 (Homo sapiens, UniProt Q9Y239); assay: blockers of NOD1 pathway activity – revised, SAR follow-up (AID 2333); assay type: functional
T5 sequence (Q9Y239 whole entry): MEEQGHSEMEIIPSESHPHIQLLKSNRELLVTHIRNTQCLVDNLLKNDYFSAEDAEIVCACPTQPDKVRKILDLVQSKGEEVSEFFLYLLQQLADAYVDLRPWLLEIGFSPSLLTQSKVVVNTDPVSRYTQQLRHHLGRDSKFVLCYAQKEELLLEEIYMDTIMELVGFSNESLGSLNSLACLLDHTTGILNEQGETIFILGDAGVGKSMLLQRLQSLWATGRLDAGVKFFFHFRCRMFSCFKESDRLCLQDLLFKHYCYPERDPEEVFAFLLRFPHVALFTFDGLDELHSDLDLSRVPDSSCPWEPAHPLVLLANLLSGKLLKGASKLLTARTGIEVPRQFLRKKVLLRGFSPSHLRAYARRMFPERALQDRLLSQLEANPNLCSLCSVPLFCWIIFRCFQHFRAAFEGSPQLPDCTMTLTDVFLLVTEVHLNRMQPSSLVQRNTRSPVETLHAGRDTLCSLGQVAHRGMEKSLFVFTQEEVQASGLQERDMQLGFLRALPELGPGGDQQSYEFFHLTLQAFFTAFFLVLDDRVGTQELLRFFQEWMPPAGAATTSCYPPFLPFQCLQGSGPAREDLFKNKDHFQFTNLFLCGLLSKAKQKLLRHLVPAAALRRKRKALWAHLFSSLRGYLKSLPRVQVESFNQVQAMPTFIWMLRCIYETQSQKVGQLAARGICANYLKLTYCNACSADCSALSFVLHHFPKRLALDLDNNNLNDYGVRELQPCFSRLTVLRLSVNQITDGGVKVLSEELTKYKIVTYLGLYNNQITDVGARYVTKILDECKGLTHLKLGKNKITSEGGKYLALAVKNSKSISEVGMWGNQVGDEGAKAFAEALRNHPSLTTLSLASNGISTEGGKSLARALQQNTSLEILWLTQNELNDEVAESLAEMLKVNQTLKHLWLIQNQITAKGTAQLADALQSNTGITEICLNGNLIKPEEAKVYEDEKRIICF

[21] = system: HEK293; assay: cells; settings: Homo sapiens
[22] = reduction of Shn3 3'UTR-driven luciferase in osteoblasts – cell-based, Clone20 osteoblasts, firefly luciferase, cherry-picked, dose response (AID 624132); assay type: functional;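 further: firefly luciferase luminescence from reporter carrying the Shn3 3'UTR in osteoblasts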
[23] = loss of viability in HepG2 cells – cell-based, CellTiter-Glo, cherry-picked, cytotoxicity control for Shn3 inhibitor project, dose response (AID 624134); assay type: functional
[24] = non-specific 3'UTR reporter inhibition in Clone20-Shn3RL – cell-based, Renilla luciferase, cherry-picked, counter-screen for Shn3 inhibitor project, dose response (AID 624133); assay type: functional
[25] = biological target: T6, Fatty acid synthase (Homo sapiens, UniProt P49327); assay: inhibition of human FAS-TE enzyme activity – biochemical, endpoint fluorescence intensity, uHTS hits, dose response (AID 624327); assay type: functional;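 further: fluorescence from hydrolysis of an O-methyl fluorescein acyl ester substrate by the enzyme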
[26] = biological target: T6, Fatty acid synthase; assay: inhibition of human FAS-TE enzyme activity – biochemical, kinetic fluorescence intensity, dose response (AID 624326); assay type: functional;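 further: rate of fluorescence rise from hydrolysis of a fluorogenic O-methyl fluorescein ester substrate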

T6 sequence (P49327 whole entry): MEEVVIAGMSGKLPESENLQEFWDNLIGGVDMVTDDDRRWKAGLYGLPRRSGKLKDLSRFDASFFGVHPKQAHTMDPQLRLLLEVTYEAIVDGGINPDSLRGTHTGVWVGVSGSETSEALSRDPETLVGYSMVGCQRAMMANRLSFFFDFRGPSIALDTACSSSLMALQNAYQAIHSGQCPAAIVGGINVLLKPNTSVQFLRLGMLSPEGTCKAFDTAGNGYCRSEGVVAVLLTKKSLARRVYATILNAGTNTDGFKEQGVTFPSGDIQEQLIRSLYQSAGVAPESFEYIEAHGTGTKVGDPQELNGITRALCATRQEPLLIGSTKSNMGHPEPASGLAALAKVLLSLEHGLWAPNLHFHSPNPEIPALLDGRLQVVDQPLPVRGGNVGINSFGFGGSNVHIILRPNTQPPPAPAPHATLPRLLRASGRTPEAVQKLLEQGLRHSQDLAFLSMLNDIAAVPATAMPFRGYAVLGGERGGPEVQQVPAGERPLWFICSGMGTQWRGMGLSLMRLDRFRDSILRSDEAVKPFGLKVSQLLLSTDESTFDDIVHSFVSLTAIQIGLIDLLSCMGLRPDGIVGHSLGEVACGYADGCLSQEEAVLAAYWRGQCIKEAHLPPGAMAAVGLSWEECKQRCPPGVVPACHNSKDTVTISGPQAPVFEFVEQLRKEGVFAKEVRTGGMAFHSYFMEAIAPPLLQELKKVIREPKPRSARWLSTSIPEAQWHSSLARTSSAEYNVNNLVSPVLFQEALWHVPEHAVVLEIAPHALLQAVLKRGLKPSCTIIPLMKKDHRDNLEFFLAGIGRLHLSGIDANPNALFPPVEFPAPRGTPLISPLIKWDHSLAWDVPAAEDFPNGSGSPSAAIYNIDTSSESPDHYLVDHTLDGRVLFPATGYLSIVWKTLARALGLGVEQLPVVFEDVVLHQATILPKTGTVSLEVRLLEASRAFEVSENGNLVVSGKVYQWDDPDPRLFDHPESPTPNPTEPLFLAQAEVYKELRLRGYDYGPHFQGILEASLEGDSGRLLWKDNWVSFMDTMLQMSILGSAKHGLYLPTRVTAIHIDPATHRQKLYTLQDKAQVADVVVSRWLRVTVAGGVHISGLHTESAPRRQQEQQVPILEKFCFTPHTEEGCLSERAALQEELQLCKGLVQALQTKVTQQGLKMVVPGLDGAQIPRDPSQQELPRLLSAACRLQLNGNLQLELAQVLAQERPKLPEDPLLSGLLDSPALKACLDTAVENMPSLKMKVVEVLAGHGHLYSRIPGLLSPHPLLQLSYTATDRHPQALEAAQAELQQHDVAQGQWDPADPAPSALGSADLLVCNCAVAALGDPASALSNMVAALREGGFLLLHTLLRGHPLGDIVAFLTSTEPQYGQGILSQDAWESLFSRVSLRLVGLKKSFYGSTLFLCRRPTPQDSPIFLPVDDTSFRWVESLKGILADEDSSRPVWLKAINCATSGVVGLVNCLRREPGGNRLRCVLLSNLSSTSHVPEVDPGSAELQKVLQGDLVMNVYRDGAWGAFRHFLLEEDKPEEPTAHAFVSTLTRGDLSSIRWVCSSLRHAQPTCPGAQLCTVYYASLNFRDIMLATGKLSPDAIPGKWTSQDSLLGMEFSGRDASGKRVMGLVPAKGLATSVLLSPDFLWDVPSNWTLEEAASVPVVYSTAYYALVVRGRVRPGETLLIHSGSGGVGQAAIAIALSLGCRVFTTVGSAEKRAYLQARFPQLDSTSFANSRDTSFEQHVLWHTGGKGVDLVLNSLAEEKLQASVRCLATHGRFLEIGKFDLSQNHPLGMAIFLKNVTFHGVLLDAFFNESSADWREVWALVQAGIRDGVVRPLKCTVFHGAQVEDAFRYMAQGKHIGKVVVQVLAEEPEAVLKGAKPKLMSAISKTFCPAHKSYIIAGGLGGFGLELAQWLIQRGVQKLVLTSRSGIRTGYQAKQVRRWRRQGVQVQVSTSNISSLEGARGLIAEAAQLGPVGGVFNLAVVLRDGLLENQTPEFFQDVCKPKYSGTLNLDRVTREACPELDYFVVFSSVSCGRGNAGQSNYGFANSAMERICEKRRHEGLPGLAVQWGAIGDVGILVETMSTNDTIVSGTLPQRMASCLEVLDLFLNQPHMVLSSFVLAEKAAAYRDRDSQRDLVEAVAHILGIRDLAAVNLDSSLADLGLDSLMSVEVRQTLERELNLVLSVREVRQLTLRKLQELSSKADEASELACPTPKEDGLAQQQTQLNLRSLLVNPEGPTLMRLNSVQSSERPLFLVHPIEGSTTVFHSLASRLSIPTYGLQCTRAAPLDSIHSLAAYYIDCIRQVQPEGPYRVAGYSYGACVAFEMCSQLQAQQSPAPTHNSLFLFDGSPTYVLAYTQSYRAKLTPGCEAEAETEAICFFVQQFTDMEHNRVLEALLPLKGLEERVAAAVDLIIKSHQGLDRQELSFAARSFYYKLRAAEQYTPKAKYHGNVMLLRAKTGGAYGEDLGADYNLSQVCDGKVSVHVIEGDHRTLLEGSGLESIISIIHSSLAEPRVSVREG
ATP-dependent molecular chaperone HSP82, sequence (C4YTQ8 whole entry): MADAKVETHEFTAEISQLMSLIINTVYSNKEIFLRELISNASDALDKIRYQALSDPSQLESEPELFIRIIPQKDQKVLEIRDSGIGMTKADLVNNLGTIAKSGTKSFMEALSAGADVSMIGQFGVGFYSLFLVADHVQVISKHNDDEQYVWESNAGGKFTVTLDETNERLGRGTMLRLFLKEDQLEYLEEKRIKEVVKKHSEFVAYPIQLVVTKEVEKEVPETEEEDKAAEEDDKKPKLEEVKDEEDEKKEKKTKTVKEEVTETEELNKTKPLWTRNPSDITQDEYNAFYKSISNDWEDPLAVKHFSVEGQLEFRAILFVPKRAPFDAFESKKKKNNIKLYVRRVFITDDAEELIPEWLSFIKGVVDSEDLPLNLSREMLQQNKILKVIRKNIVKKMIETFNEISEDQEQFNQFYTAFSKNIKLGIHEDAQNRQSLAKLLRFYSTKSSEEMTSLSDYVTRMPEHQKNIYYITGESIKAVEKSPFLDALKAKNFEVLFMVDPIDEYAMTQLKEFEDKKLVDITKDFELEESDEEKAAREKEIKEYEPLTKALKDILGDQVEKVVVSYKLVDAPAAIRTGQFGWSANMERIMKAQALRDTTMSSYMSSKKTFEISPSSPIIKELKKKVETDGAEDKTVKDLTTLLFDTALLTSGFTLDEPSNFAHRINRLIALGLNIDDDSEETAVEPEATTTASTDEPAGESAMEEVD
Tumor necrosis factor, sequence (P01375 whole entry, the tested form may be a part): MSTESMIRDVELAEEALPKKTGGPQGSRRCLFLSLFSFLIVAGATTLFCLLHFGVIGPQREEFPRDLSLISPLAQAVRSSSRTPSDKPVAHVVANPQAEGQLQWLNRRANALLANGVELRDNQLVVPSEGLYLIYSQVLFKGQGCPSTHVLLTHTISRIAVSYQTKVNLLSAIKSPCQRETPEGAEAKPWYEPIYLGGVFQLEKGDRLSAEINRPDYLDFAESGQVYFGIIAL
Disintegrin and metalloproteinase domain-containing protein 17, sequence (P78536 whole entry, the tested form may be a part): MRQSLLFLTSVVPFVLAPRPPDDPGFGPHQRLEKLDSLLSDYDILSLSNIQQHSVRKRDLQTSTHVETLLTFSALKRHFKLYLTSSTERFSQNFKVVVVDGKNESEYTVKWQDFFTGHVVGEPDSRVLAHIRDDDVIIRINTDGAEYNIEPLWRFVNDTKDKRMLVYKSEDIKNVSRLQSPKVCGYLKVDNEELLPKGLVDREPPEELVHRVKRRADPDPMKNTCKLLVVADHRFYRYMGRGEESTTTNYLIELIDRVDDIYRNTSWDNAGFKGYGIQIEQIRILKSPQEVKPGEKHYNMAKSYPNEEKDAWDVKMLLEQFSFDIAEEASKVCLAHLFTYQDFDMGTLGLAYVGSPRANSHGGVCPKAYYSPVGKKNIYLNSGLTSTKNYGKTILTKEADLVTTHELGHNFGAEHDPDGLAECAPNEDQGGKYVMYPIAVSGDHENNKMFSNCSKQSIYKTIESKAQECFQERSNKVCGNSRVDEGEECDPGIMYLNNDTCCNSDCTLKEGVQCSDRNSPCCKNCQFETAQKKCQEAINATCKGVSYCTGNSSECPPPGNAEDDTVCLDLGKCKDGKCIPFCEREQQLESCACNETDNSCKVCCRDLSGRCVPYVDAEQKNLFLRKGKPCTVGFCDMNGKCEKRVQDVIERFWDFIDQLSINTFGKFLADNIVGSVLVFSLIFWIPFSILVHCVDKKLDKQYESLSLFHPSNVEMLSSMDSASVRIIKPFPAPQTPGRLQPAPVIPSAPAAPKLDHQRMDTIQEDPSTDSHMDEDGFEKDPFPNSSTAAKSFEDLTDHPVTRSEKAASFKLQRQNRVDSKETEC

## Cc1oc(-c2ccc(Cl)cc2)nc1CN1CCC(C(=O)NCCCN2CCCC(C)C2)CC1 (centres undefined)
[1]
  AC50: 13.2 µM (active)
[2]
  IC50: 4.32 µM (active)
[3]
  CC50: 22.5 µM (active)

## CC1(C)C=Cc2c(ccc3c2OC[C@H](c2ccc(O)cc2O)C3)O1
[4]
  AC50: 3.16 µM (active)
[5]
  AC50: 7.45 µM (active)
[6]
  EC50: > 54.7 µM (inactive)
[7]
  EC50: > 54.7 µM (inactive)
[8]
  IC50: 22.1 µM (inactive)
[9]
  EC50: > 54.7 µM (inactive)
[10]
  IC50: 19.5 µM (inactive)
[11]
  IC50: > 69.5 µM (inactive)

## CCOC(=O)/C=C/CN(C(=O)OC(C)(C)C)S(=O)(=O)N1CC=CC1
[6]
  EC50: > 54.7 µM (inactive)
[7]
  EC50: > 54.7 µM (inactive)
[8]
  IC50: > 89.2 µM (inactive)
[9]
  EC50: > 55.9 µM (inactive)

## COC(=O)C1=C(C)N(Cc2ccccc2)C(NCc2cccc(Cl)c2)=N[C@H]1c1cccc(F)c1
[4]
  AC50: 3.48 µM (active)
[12]
  IC50: > 20 µM (inactive)
[6]
  EC50: > 54.7 µM (inactive)
[7]
  EC50: 25.2 µM (inactive)
[13]
  AC50: 7.03 µM (active)
[8]
  IC50: 12.1 µM (inactive)
[9]
  EC50: > 56 µM (inactive)

## O=C(Nc1ccncc1)c1cc2ccccc2cc1O
[14]
  CC50: > 40 µM (active)

## Cc1cc(=O)oc2cc(Oc3ccc([N+](=O)[O-])cc3[N+](=O)[O-])ccc12
[15]
  EC50: 35.9 µM (inconclusive)
[16]
  EC50: 1.3 µM (active)
[17]
  EC50: > 180 µM (inactive)
[18]
  EC50: > 160 µM (inactive)

## O=C(CSc1nc2scc(-c3ccccc3)c2c(=O)[nH]1)Nc1ccc(C(F)(F)F)cc1
[19]
  IC50: 0.752 µM (active)
[20]
  IC50: 1.65 µM (active)
[21]
  IC50: 10.3 µM (active)

## O=C1C(F)=CC(COC(c2ccccc2)(c2ccccc2)c2ccccc2)OC1n1cc(F)c(=O)[nH]c1=O (centres undefined)
[5]
  AC50: 2.6 µM (active)
[2]
  IC50: 12.1 µM (active)
[3]
  CC50: 6.83 µM (active)
[22]
  AC50: 0.428 µM (active)
[23]
  AC50: 9.11 µM (active)
[24]
  AC50: 2.42 µM (active)
[25]
  IC50: 7.69 µM (active)
[26]
  IC50: 8.13 µM (active)

## COc1ccc(CNc2nc(NCc3ccc(OC)cc3)c3[nH]cnc3n2)cc1
[14]
  CC50: > 40 µM (active)
